Assays:
[1] = tested on: MDA-MB-231 (breast); assay: SRB anti-tumour (growth inhibition) assay, MDA-MB-231; format: cell-based; conditions: Homo sapiens, 48 h exposure, read-out: GI50 (concentration inhibiting 50% of cell growth)
Experimental: The compounds generated were tested against a series of cell lines from tumours. It quantitatively determined the cell growth and the viability, using a colorimetric assay type, using the reaction with sulforhodamine B (SRB), according to the technique described by Faircloth et al. (Journal of Tissue and Culture Methods 1988, 11, 201-205).
96-well microtitre plates are inoculated with cells (5×10^3 cells per well) in aliquots of 195 μl of medium, incubating them during 18 h, in a medium without added compound, to allow the cells to adhere to the surface. Next, the compounds to be tested are added, in samples of 5 μl, at a range of concentrations of 10 to 10^−8 μg/ml, dissolved in DMSO/EtOH (0.2% in PS buffer). After 48 h exposure, the anti-tumour effect is measured using the Sulforhodamine B (SRB) technique: the cells are fixed adding 50 μl of cold […] (50%) (w/v) and it is incubated for 60 min. at 4° C. The plates are washed with deionized water and dried. 100 μl of SRB solution (0.4% w/v in 1% acetic acid) to each well and it is incubated during 10 min. at ambient temperature. The non-bound SRB is eliminated, washing with 1% acetic acid. The plates are air dried and the bound colorant is dissolved with Tris buffer. The optical densities are read in an automatic plate spectrophotometer reader at a wavelength of 490 nm.
For the compounds of formula (III), (IV), (V), (VI), (VII), (VIII), (IX) and the compounds of formula (XII), (XIII), (XIV), (XV), (XVI) and (XVIII).

[2] = biological target: T1, KDR (Homo sapiens, UniProt P35968); assay: LabChip (Caliper) kinase assay, KDR; format: biochemical; conditions: for inhibition at 0.01 µM: compound at 10 nM; for inhibition at 0.01 µM / inhibition at 0.1 µM: read-out: remaining kinase activity (in %) / percentage of inhibition; for inhibition at 0.1 µM: compound at 100 nM; for IC50: ATP at Km, read-out: CI50 (the source's name)
T1 construct: purchased Carna Biosciences
Experimental: The analysis of kinase activity described here was performed using LabChip (Caliper Life Sciences), specifically the Caliper LC3000 and the EZ Reader II instruments.
The kinase assay used measures the conversion of a fluorescent peptide (substrate) to a phosphorylated product. The reaction mixture, in a microplate well, is introduced by a capillary in a chip where the non-phosphorylated substrate and the phosphorylated product are separated by […]. The intensity of the fluorescent signal over time is related to the reaction progress. The phosphorylated product migrates quicker than the non-phosphorylated substrate and the signals of the two forms of the peptide appear as differentiated peaks. The Caliper determines the peak height and calculates the ratio of product to the peak sum (P/(P+S)). This value is used to compare wells with compounds and wells with controls and thus determine the % of inhibition for the given product.
The followings kinases were used for the enzymatic inhibition studies, between brackets the value of the Michaelis-Menten constant, Km, of the ATP (Adenosine triphosphate) for each kinase, in μM: obtained from Carna Biosciences: MAPKAPK2 (4.6), AurA (3.6), AurB (5), PKCζ (3.8), RSK1 (23.3), PRAK (5), Erk1 (33.4), PKD2 (32.1), CK1d (16.3), CHK1 (33), ABL (61.7), FYN (36), LYNa (17), CHK2 (57.8), MET (79.5), LCK (28.5), SRC (38), GSK3β (7.3), Erk2 (62.1), PKACα (1.7), AKT2 (186.1), INSR (871.8), p38a (396.5), AKT1(48), MSK1 (21.2), PKCβ2 (84.8), ROCK2 (3.3), PIM2 (4.9), AMPK (38.6), KDR (164.8), IRAK4 (196.5), SGK1 (121.8), SYK (33.5); obtained from Invitrogen: CDK2 (57.6), BTK (123), HGK (80); obtained from Upstate: MST2 (36.6), PKGα (16), PAK2 (1.9), IGF1R (320), FGFR1 (171), MARK1 (33), CAMK2δ (22.4), c-TAK1 (66), DYRK1a (18.1), CaMK4 (3.9), FLT3 (350), c-Raf (6.2), P70S6K (95).
The compounds were dissolved in 100% DMSO and were diluted at 25 times the final concentration desired for the assay. In the case of the determination of Cl50, serial dilutions were made to reach eight concentrations and give rise to the inhibition curve. 1 μL of each concentration is transferred, in duplicate to a 384-well microplate. 12 μL of enzymatic buffer is added to each well containing purified kinase (several suppliers as indicated above), 100 mM HEPES, pH 7.5, 1 mM DTT (Calbiochem), 0.002% Brij-35 (Sigma) and also in presence of 10 mM MgCl2 as cofactor, except for INSR and IRAK4 wherein 10 mM MnCl2 is used instead of MgCl2. For the kinases CAMK26 and CAMK4, 1 mM CaCl2 and 6.7 μg/mL of calmodulin are also added. For KDR kinase, 0.05% of the CHAPSO detergent is added. For the c-Raf kinase, 10 mM MnCl2 is added. For PKCβ2 0.02 μg/mL of PS/PMA is added. For PKGα se 10 μM of cGMP (cyclic guanosine monophosphate) is added. The compound and the enzyme are left for 15 minutes preincubation and, then, the following are added to each well: 12 μL of peptide buffer/ATP containing 100 mM HEPES, pH 7.5, 1.5 μM peptide marker with fluorescein (specific for the corresponding kinase), ATP (at concentration KM), and 0.002% Brij-35 to start the reaction. Generally, the reactions are incubated for 1-1.5 h at ambient temperature to obtain an adequate conversion (15-40%) of the peptide to the phosphorylated product. The reactions were ended by the addition of 45 μL of buffer containing 0 mM EDTA. The microplates were read by the LabChip 3000 using a 12-channel LabChip. The P/(P+S) values were obtained as described above and the CI50 curves were generated using XIfit.
Table 9a has the 0150 data obtained in pairs of compound-kinase selected from the compounds of formula (VII), (VIII), (IX), (XVI), (XVII) and (XVIII) after taking inhibition measurements at 100 nM and 10 nM. Those couples that provide >70% of inhibition at 10 nM were consider for measuring its IC50. […]

T1 sequence (P35968 20-1356): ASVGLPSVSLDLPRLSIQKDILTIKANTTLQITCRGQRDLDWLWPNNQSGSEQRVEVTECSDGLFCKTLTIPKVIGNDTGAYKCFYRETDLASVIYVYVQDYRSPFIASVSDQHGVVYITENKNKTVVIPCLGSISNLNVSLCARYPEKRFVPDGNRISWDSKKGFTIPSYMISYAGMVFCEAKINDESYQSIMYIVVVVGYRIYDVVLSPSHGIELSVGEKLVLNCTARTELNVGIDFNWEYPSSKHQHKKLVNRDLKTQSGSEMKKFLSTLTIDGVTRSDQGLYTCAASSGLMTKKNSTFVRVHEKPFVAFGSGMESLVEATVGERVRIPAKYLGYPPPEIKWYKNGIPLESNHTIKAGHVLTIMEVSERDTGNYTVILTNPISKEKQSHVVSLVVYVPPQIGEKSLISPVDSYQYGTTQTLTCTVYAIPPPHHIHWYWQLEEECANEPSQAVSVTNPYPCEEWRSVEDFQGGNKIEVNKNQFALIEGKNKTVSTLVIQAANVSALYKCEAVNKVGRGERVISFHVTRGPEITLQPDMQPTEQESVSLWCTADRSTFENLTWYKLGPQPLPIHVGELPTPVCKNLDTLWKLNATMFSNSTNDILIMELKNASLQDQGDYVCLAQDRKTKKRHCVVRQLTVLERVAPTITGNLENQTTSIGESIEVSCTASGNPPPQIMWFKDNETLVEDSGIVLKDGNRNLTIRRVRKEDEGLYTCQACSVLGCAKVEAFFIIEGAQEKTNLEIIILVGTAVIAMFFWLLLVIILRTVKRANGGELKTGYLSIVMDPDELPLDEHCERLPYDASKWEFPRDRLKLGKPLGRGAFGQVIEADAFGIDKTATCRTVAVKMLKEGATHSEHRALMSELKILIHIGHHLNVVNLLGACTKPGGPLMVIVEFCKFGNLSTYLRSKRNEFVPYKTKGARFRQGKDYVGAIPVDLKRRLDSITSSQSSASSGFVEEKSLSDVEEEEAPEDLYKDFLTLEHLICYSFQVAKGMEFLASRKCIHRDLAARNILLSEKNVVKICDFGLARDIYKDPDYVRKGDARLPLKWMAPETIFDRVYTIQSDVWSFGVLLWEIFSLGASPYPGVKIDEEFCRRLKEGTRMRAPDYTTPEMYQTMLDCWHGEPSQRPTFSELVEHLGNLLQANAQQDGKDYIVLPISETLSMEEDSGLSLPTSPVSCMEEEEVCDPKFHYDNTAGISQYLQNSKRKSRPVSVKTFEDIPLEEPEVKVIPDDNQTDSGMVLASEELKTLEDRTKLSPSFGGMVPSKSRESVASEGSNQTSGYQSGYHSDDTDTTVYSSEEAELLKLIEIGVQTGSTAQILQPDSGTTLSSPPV

SMILES | GI50 [1] | inhibition at 0.01 µM [2] | inhibition at 0.1 µM [2] | IC50 [2]
C[C@@H]1O[C@@H](n2c3ccccc3c3c4c(c5c6ccccc6[nH]c5c32)C(=O)NC4=O)[C@H](O)[C@H](O)[C@H]1O [formula (III), N^13-1′-β-L-rhamnosylarcyriaflavin] | 4400 nM | -7% | 21% | –
C[C@@H]1O[C@@H](n2c3ccccc3c3c4c(c5c6ccccc6[nH]c5c32)C(=O)NC4=O)C[C@H](O)[C@H]1O [formula (IV), N^13-1′-β-L-olivosylarcyriaflavin] | 14100 nM | 21% | 68% | –
C[C@]12O[C@H](C[C@@H](O)[C@H]1O)n1c3ccccc3c3c4c(c5c6ccccc6n2c5c31)C(=O)NC4=O [formula (IX), N^12-5′(S)-N^13-1′-(R)-L-digitoxosylarcyriaflavin] | 8160 nM | – | – | > 10 nM
C[C@@H]1O[C@@H](n2c3ccccc3c3c4c(c5c6ccccc6[nH]c5c32)C(=O)NC4=O)C[C@@H](O)[C@H]1O [formula (V), N^13-1′-β-L-digitoxosylarcyriaflavin] | 4190 nM | 28% | 63% | –
C[C@H]1O[C@@H](n2c3ccccc3c3c4c(c5c6ccccc6[nH]c5c32)C(=O)NC4=O)C[C@@H](O)[C@@H]1O [formula (VI), N^13-1′-β-D-olivosylarcyriaflavin] | 2430 nM | 2% | 40% | –
C[C@]12O[C@H]([C@H](O)[C@H](O)[C@H]1O)n1c3ccccc3c3c4c(c5c6ccccc6n2c5c31)C(=O)NC4=O [formula (VII), N^12-5′(S)-N^13-1′-(R)-L-rhamnosylarcyriaflavin] | 1350 nM | – | – | 3.7 nM
C[C@]12O[C@H](C[C@H](O)[C@H]1O)n1c3ccccc3c3c4c(c5c6ccccc6n2c5c31)C(=O)NC4=O [formula (VIII), N^12-5′(S)-N^13-1′-(R)-L-olivosylarcyriaflavin] | 7500 nM | – | – | 0.55 nM
C[C@@H]1O[C@@H](n2c3ccccc3c3c4c(c5c6ccccc6[nH]c5c32)CNC4=O)[C@H](O)[C@H](O)[C@H]1O [formula (XII), N^13-1′-β-L-rhamnosyl-k252c] | 1970 nM | -1% | 6% | –
C[C@@H]1O[C@@H](n2c3ccccc3c3c4c(c5c6ccccc6[nH]c5c32)CNC4=O)C[C@H](O)[C@H]1O [formula (XIII), N^13-1′-β-L-olivosyl-k252c] | 1430 nM | 7% | 48% | –
C[C@@H]1O[C@@H](n2c3ccccc3c3c4c(c5c6ccccc6[nH]c5c32)CNC4=O)C[C@@H](O)[C@H]1O [formula (XIV), N^13-1′-β-L-digitoxosyl-k252c] | 2490 nM | 1% | 16% | –
C[C@H]1O[C@@H](n2c3ccccc3c3c4c(c5c6ccccc6[nH]c5c32)CNC4=O)C[C@@H](O)[C@@H]1O [formula (XV), N^13-1′-β-D-olivosyl-k252c] | 3170 nM | -4% | 18% | –
C[C@]12O[C@H]([C@H](O)[C@H](O)[C@H]1O)n1c3ccccc3c3c4c(c5c6ccccc6n2c5c31)CNC4=O [formula (XVI), N^12-5′(S)-N^13-1′-(R)-L-rhamnosyl-k252c] | 590 nM | – | – | –
C[C@]12O[C@H](C[C@H](O)[C@H]1O)n1c3ccccc3c3c4c(c5c6ccccc6n2c5c31)CNC4=O [formula (XVII), N^12-5′(S)-N^13-1′-(R)-L-olivosyl-k252c] | 1050 nM | – | – | –
C[C@]12O[C@H](C[C@@H](O)[C@H]1O)n1c3ccccc3c3c4c(c5c6ccccc6n2c5c31)CNC4=O [formula (XVIII), N^12-5′(S)-N^13-1′-(R)-L-digitoxosyl-k252c] | 1840 nM | – | – | > 10 nM
